Measured values: paper PMC2990756, “Quantitative High-Throughput Screening Identifies 8-Hydroxyquinolines as Cell-Active Histone Demethylase Inhibitors” (PLoS ONE, 2010)
Like-named read-outs stand apart in the source and are kept apart here. Each block holds one compound with its values, some of them ahead of it.

Key:
Format in all cases: biochemical
[1] = target: T1, formaldehyde dehydrogenase (FDH) (Pseudomonas putida, UniProt P46154); test: FDH coupling enzyme counterscreen; conditions: Table S1, FDH counterscreen; for IC50: unit not in table, from Figure 2, read-out: qHTS Data: jmjd2e fdh IC50
T1 construct: purchased Sigma-Aldrich
T1 sequence (P46154 whole entry): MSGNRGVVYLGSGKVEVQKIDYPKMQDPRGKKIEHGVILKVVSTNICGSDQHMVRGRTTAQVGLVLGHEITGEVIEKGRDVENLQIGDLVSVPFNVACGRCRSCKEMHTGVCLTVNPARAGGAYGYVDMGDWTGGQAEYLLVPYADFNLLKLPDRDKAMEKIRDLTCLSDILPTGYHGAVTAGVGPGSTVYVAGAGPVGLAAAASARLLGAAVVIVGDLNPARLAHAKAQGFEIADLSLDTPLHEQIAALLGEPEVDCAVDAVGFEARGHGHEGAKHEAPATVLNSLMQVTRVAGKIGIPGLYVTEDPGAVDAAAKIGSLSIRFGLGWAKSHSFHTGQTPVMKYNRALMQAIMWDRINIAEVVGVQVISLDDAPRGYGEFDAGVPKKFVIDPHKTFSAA
Excerpt: Dimethylsulfoxide certified ACS grade (DMSO) was from Fisher, Inc. HEPES buffer was obtained from Gibco. […] Black solid-bottom 1,536-well assay plates were from Greiner Bio-One (Monroe, NC).

[2] = target: T2, JMJD2E (KDM4E) (Homo sapiens, UniProt B2RXH2); test: qHTS fluorescence FDH-coupled JMJD2E demethylase assay
T2 construct: The catalytic domain of human JMJD2E (residues 1–337); His6 (N); made in house; host or cells: E. coli
T2 sequence (B2RXH2 1-337): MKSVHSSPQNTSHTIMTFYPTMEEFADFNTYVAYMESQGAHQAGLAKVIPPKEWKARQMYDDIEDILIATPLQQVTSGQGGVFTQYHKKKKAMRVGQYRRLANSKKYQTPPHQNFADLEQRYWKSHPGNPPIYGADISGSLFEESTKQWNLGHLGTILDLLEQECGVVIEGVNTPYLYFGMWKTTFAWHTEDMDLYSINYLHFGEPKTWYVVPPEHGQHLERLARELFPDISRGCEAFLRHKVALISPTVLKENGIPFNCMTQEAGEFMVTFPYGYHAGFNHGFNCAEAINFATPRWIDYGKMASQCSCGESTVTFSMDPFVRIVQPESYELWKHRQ
Excerpt: The oxidation of formaldehyde is coupled to the reduction of NAD^+ to NADH, which is monitored by fluorescence spectroscopy. […] To this end, initial screening hits were filtered by a combination of cheminformatics (to exclude low-confidence inhibitors and autofluorescent false positives), counterscreening against the coupled-assay component formaldehyde dehydrogenase (FDH), and orthogonal direct detection of inhibition of demethylation by mass spectrometry ( Figure 1 ).
Reactions were initiated with 1 µL addition of peptide substrate solution containing final concentrations of 10 µM FAS, 50 µM 2OG, 0.25 U/mL FDH, 0.25 mM NAD^+, and 50 µM peptide substrate (ARK(me3)STGGK). A ViewLux imager (PerkinElmer, Waltham, MA) was used to measure NADH fluorescence (λex 340 nm, λem 450 nm) immediately after substrate addition and following 30 min incubation at room temperature. To record any systematic drifts in assay behavior (signal window and noise), assay plates containing no library compounds but only DMSO as a vehicle control were tested periodically (every ∼60 plates) throughout the screen.
Data were normalized to the basal response (0% activity) in the absence of enzyme and the maximal response (100% activity) in the absence of compound. Using the Hill equation, dose-response curves and IC50 values were automatically generated for each compound tested with software developed internally (www.ncgc.nih.gov/pub/openhts/curvefit/). […] The initial well fluorescence (first kinetic read) associated with each sample was stored in a database and used in the cheminformatics analysis to identify autofluorescent compounds interfering with the assay signal.

[3] = target: T3, JMJD2E (Homo sapiens, UniProt B2RXH2); test: JMJD2E FDH-coupled assay under low and high iron conditions (iron chelation profile); parameters: The catalytic domain of human JMJD2E (residues 1–337); His6 (N); made in house; host or cells: E. coli; conditions: Table S1; for IC50: unit not in table, from Figure 2
T3 sequence (B2RXH2 1-337): T2 sequence (B2RXH2 1-337)
Description: The prioritized compounds were also evaluated in the screening assay using two different ferrous ion concentrations (termed high iron and low iron, respectively), in order to assess their propensity for iron chelation.
The ratio of IC50 values under high iron to low iron was calculated for each compound.

[4] = Figure 3, substituted 8-hydroxyquinolines against JMJD2E, read-out: IC50 /μM (qHTS IC50, FDH-coupled assay)

SMILES: CCC(=O)c1ccccc1OCCN1CCN(Cc2ccccc2)CC1.O=C(O)C(=O)O [compound 24782649]
qHTS Data: jmjd2e fdh CurveClass [1]: Inactive

SMILES: Clc1ccc(SCCN2CCNCC2)cc1.O=C(O)C(=O)O [compound 24783981]
qHTS Data: jmjd2e fdh CurveClass [1]: Inactive

SMILES: CCNc1nc(C(=O)O)nc(N2CCOCC2)n1 [compound 24789924]
qHTS Data: jmjd2e fdh CurveClass [1]: Inactive

SMILES: O=C(CN1CCN(c2ncccn2)CC1)N1CCCC1.O=C(O)C(=O)O [compound 24790164]
qHTS Data: jmjd2e fdh CurveClass [1]: Inactive

SMILES: O=C(CN1CCCCCC1)NCC1CCCO1.O=C(O)C(=O)O (stereo not drawn) [compound 24790169]
qHTS Data: jmjd2e fdh CurveClass [1]: Inactive

SMILES: Cc1cccc(NCc2ccc(O)c3ncccc23)c1 [compound 24790252]
qHTS Data: jmjd2e fdh CurveClass [1]: Inactive

IC50 [2, 4]: 28 µM
SMILES: Oc1cccc2ccc(/C=C/c3c(F)cccc3Cl)nc12 [compound 24793399]

SMILES: S=c1nc(C2COc3ccccc3O2)[nH][nH]1 (stereo not drawn) [compound 24801312]
qHTS Data: jmjd2e fdh CurveClass [1]: -1.3 | IC50 [1]: 15.8 µM

SMILES: Cc1cc(N(C)/N=C/c2ccccc2)nc(-c2ccccc2O)n1 [compound 24801833]
IC50 [1]: 39.8 µM

SMILES: CC1CCN(CC(=O)NCCc2ccc(F)cc2)CC1.O=C(O)C(=O)O [compound 24804760]
qHTS Data: jmjd2e fdh CurveClass [1]: Poor quality curve

SMILES: O=C(O)C(=O)O.S=C(NCC1CCCO1)N1CCN(Cc2ccccc2)CC1 (stereo not drawn) [compound 24807070]
qHTS Data: jmjd2e fdh CurveClass [1]: Inactive

SMILES: COc1cccc(CN2CCN(C(=O)c3ccc(-c4ccccc4)cc3)CC2)c1OC.O=C(O)C(=O)O [compound 24807835]
qHTS Data: jmjd2e fdh CurveClass [1]: Inactive

SMILES: Cc1cccc(N2C(=O)CC(Sc3ncn[nH]3)C2=O)c1 (stereo not drawn) [compound 24809940]
IC50 [1]: 0.28 µM

SMILES: CN(C)c1cc(N/N=C/c2ccc(Cl)cc2)nc(N(C)C)n1 [compound 24813304]
qHTS Data: jmjd2e fdh CurveClass [1]: Poor quality curve | IC50 [1]: 14.1 µM

SMILES: O=C(O)C(=O)O.c1cc(CN2CCN(C3CCCCCC3)CC2)ccn1 [compound 24817627]
qHTS Data: jmjd2e fdh CurveClass [1]: Inactive

SMILES: O=C(Nc1ccccc1C(F)(F)F)c1ncn[nH]1 [compound 24822488]
qHTS Data: jmjd2e fdh CurveClass [1]: Poor quality curve | IC50 [1]: 22.4 µM

SMILES: O=C(CN1CCN(Cc2ccccc2)CC1)NC(c1ccccc1)c1ccccc1.O=C(O)C(=O)O [compound 24822653]
qHTS Data: jmjd2e fdh CurveClass [1]: Inactive

SMILES: CC(CCc1ccccc1)NC(=O)CN1CCN(c2ccc(O)cc2)CC1 (stereo not drawn) [compound 24833440]
qHTS Data: jmjd2e fdh CurveClass [1]: Inactive

SMILES: CN(C)CCCNCC(=O)Nc1ccc(Cl)cc1C(=O)c1ccccc1.O=C(O)C(=O)O [compound 24839839]
qHTS Data: jmjd2e fdh CurveClass [1]: Inactive

SMILES: COc1ccc(Cl)cc1CSc1ncn[nH]1 [compound 26662682]
IC50 [1]: 0.32 µM

SMILES: CCCCn1c(=O)[nH]c2nc3cc(NC(C)=O)ccc3nc2c1=O [compound 26671554]
IC50 [1]: 11.2 µM

SMILES: COc1cc(C2C3=C(CCCC3=O)Nc3c2c(C)nn3-c2cccc(C)c2)cc(OC)c1O (stereo not drawn) [compound 26724424]
qHTS Data: jmjd2e fdh CurveClass [1]: Inactive

SMILES: CC1(OC(=O)C2CCCC2)C(=O)C=C2C=C(c3ccsc3)N(CCc3ccccn3)C=C2C1=O (stereo not drawn) [compound 26725362]
qHTS Data: jmjd2e fdh CurveClass [1]: Inactive

SMILES: COC(=O)CCC(=O)OC1(C)C(=O)C=C2C=C(C3CC3)N(CCc3ccccn3)C=C2C1=O (stereo not drawn) [compound 26725368]
qHTS Data: jmjd2e fdh CurveClass [1]: Inactive

SMILES: COCCN1C=C2C(=O)C(C)(OC(=O)CCc3ccccc3)C(=O)C=C2C=C1c1ccc(C#N)cc1 (stereo not drawn) [compound 26725518]
qHTS Data: jmjd2e fdh CurveClass [1]: Poor quality curve

SMILES: CC1(OC(=O)CCc2ccccc2)C(=O)C=C2C=C(c3ccc(C#N)cc3)N(C3CC3)C=C2C1=O (stereo not drawn) [compound 26725552]
qHTS Data: jmjd2e fdh CurveClass [1]: Inactive

SMILES: Cc1noc(C)c1C(=O)NNc1ccc(C(C)C)cc1 [compound 26728365]
qHTS Data: jmjd2e fdh CurveClass [1]: Inactive

qHTS Data: jmjd2e fas20um CurveClass ([3]; high iron): Poor quality curve | IC50 ([3]; high iron, head says 20 µM FAS, read-out: qHTS Data: jmjd2e fas20um IC50): 3.16 µM | IC50 ([3]; low iron 2.5 µM FAS, read-out: qHTS Data: jmjd2e fas2.5um IC50): 2.82 µM | IC50 ([2]; Table S1, unit not in table, from Figure 2, read-out: qHTS Data: jmjd2e IC50): 1.41 µM
SMILES: Oc1cc(O)c2c(c1)OC(c1cc(O)c(O)c(O)c1)C(O)C2 (stereo not drawn) [compound 26749553]

IC50 [2, 4]: 7.9 µM
SMILES: Oc1ccc(CNc2cccc(C(F)(F)F)c2)c2cccnc12 [compound 50122416]

IC50 [2, 4]: 5 µM
SMILES: Oc1c(CN2CCCC2)cc(COCc2ccccc2)c2cccnc12 [compound 85736312]
